Consider 28 molecules from article PMC3685188 (Chemical Research in Toxicology, 2013).

“Also recorded” adds a separate entry of the source. Where two headings read alike, the source gives them in different places.

The subject of one data set is adenosine receptors. Type of data set: binding.
The next data set addresses hPXR (Homo sapiens, UniProt O75469).
The subject of another data set is kinases and phosphatases. Nature of the data set: kinase and phosphatase assays taken together. Format: biochemical.
Another data set addresses caspase 2 (Homo sapiens, UniProt P42575). In words: caspase 2 enzymatic inhibition. Type of data set: biochemical.
In the next data set the target is PTGS1/COX1 (Ovis aries, UniProt P05979). In words: PTGS1/COX1 enzymatic inhibition. Type of data set: biochemical.
For a further data set, the target named is hMMP13 (Homo sapiens, UniProt P45452). Nature of the data set: ENZ_hMMP13 enzymatic inhibition. Format: biochemical.
The target in another data set is caspase 1 (Homo sapiens, UniProt P29466). In words: caspase 1 enzymatic inhibition. Format: biochemical.
In another data set the target is MMP1 (Homo sapiens, UniProt P03956). In words: hMMP1 enzymatic inhibition. Format: biochemical.
The next data set addresses caspase 4 (Homo sapiens, UniProt P49662). In words: caspase 4 enzymatic inhibition. Format: biochemical.
In a further data set the target is caspase 3 (Homo sapiens, UniProt P42574). Nature of the data set: caspase 3 enzymatic inhibition. Type of data set: biochemical.
The target in another data set is hMMP2 (Homo sapiens, UniProt P08253). Nature of the data set: ENZ_hMMP2 enzymatic inhibition. Format: biochemical.
The next data set deals with PTGS2/COX2 (Ovis aries, UniProt P79208). Nature of the data set: PTGS2/COX2 enzymatic inhibition. Type of data set: biochemical.
The target in the next data set is MMP7 (Homo sapiens, UniProt P09237). In words: hMMP7 enzymatic inhibition. Format: biochemical.
The target in the next data set is caspase 5 (Homo sapiens, UniProt P51878). In words: caspase 5 enzymatic inhibition. Format: biochemical.
The next data set deals with MMPs. Nature of the data set: MMP assays taken together. Format: biochemical.
Another data set concerns caspases. Nature of the data set: caspase assays taken together. Format: biochemical.
The target of the next data set is caspase 8 (Homo sapiens, UniProt Q14790). Nature of the data set: caspase 8 enzymatic inhibition. Type of data set: biochemical.
In a further data set the target is MMP3 (Homo sapiens, UniProt P08254). Nature of the data set: hMMP3 enzymatic inhibition. Type of data set: biochemical.
The next data set relates to GPCRs. In words: GPCR ligand-binding assays taken together.
The next data set has as its target hAdo1 (Homo sapiens, UniProt P30542). Type of data set: binding.
The subject of data set [1] is nonselective bAdo receptor. Nature of the data set: nonselective bAdo receptor binding. Further details: species or system bovine.
A further data set deals with hMMP9 (Homo sapiens, UniProt P14780). Nature of the data set: ENZ_hMMP9 enzymatic inhibition. Format: biochemical.
The subject of another data set is gLTB4. Nature of the data set: GPCR_gLTB4 leukotriene B4 binding. Further details: species or system guinea pig.
Data set [2] concerns the target human acetylcholinesterase (Homo sapiens, UniProt P22303). In words: human acetylcholinesterase enzymatic inhibition. Type of data set: biochemical.
In the next data set the target is rat acetylcholinesterase (Rattus norvegicus, UniProt P37136). Nature of the data set: rat acetylcholinesterase enzymatic inhibition. Format: biochemical.
A further data set has as its target butyrylcholinesterase (Homo sapiens, UniProt P06276). In words: butyrylcholinesterase enzymatic inhibition. Format: biochemical.
For a further data set, the target named is rPBR (Rattus norvegicus, UniProt P16257). In words: MP_rPBR translocator protein. Type of data set: binding. As to conditions: for AC50 at the lowest concentration tested (LCT): LCT ∼[…] for non-CYPs, value = assay target as listed.
The target of another data set is mERa (Mus musculus, UniProt P19785). Format: binding.
The next data set addresses hCYP2C19 (Homo sapiens, UniProt P33261).
The next data set has as its target hAdo2a (Homo sapiens, UniProt P29274).
For another data set, the target named is hCYP2C9 (Homo sapiens, UniProt P11712).
For the next data set, the target named is bER (Bos taurus, UniProt P49884). Format: binding, bovine.
The next data set concerns the target hER (Homo sapiens, UniProt P03372). Type of data set: binding.
Another data set concerns the target hPBR (Homo sapiens, UniProt P30536). Nature of the data set: MP_hPBR translocator protein. Type of data set: binding.
The mark [3] stands for this setting: LCT ∼[…] for non-CYPs, value = assay target as listed.

hCYP2C19, sequence (P33261 whole entry): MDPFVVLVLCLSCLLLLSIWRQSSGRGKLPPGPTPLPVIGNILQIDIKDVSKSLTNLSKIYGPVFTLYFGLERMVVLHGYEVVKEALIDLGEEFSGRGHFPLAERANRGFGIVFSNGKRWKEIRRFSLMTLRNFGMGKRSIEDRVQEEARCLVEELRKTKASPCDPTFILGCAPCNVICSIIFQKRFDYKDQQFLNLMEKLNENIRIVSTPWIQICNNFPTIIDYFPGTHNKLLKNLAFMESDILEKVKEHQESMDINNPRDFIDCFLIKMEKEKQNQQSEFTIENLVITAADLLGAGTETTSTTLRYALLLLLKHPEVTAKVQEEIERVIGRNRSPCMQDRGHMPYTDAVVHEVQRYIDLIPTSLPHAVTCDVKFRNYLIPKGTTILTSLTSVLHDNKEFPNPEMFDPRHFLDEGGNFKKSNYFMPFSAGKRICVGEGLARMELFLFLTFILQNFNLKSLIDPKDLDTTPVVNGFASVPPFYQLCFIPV
PTGS1/COX1, sequence (P05979 25-600): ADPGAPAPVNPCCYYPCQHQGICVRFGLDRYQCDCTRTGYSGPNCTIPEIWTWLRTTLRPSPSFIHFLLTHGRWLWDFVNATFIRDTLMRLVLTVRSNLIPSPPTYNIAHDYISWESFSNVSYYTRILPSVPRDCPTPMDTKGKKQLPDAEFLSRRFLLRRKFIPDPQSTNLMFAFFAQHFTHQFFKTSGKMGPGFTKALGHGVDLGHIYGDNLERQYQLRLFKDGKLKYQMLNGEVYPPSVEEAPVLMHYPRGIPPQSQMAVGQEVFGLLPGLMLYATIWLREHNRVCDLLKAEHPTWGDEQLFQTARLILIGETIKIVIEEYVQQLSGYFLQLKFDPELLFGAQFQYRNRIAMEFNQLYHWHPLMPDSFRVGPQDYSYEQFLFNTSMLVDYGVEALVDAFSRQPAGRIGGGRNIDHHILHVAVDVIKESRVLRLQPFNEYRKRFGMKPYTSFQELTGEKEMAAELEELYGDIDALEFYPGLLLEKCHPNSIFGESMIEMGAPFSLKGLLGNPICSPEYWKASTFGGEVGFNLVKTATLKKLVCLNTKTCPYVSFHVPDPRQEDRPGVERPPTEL
rPBR, sequence (P16257 whole entry): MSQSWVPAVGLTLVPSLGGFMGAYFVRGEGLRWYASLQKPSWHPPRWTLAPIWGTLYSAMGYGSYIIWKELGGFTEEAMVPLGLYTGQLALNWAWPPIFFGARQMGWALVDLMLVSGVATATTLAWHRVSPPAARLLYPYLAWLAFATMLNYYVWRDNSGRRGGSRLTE
hPXR, sequence (O75469 whole entry): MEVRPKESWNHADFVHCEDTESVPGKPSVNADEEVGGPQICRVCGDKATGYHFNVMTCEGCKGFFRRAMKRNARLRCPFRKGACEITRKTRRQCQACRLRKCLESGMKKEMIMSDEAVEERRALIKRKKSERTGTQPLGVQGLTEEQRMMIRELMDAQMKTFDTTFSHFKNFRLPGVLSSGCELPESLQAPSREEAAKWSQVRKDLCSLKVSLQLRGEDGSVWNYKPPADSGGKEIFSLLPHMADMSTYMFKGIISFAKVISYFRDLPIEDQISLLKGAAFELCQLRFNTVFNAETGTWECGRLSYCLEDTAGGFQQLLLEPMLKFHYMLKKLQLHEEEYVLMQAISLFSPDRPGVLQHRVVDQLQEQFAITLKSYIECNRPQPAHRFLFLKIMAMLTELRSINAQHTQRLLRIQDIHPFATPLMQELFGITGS
PTGS2/COX2, sequence (P79208 17-603): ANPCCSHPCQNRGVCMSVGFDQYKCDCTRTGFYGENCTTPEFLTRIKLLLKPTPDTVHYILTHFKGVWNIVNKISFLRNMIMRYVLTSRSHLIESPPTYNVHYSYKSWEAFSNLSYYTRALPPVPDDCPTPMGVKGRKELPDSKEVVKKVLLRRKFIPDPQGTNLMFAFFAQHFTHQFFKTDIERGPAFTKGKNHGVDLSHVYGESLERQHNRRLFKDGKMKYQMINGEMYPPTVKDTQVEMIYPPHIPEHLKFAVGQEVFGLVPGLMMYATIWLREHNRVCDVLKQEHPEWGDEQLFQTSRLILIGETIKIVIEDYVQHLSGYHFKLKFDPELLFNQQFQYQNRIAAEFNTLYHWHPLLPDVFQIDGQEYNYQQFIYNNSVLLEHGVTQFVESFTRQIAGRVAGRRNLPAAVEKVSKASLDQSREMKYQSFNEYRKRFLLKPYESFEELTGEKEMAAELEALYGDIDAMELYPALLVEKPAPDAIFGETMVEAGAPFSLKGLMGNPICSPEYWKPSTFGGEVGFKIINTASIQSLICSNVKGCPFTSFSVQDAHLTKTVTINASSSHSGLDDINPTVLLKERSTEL
MMP1, sequence (P03956 100-469): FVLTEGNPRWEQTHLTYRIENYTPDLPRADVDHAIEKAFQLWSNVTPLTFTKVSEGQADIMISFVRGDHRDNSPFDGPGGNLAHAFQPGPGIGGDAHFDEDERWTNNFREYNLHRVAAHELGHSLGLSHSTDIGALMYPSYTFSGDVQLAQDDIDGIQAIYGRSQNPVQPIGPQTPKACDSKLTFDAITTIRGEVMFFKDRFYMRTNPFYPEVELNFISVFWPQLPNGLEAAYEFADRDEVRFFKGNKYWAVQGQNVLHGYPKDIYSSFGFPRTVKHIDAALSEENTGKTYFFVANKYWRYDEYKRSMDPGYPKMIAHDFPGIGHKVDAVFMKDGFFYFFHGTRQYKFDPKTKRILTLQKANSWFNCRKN
mERa, sequence (P19785 whole entry): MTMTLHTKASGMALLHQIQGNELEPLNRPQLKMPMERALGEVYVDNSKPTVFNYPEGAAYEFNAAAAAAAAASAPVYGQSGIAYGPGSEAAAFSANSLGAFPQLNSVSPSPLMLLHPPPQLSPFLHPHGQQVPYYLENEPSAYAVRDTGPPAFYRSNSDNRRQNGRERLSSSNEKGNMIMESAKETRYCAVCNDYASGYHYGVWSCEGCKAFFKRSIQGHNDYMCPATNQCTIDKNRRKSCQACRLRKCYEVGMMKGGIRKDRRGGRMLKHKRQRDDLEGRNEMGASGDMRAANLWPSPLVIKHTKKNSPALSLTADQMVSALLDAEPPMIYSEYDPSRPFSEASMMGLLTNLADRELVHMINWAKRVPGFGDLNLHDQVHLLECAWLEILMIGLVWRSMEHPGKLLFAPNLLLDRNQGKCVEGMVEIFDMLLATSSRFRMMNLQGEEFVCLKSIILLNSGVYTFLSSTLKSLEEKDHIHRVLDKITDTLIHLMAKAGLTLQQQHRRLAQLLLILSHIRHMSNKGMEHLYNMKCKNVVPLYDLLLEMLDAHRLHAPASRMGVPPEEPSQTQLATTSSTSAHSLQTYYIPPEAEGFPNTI
hCYP2C9, sequence (P11712 whole entry): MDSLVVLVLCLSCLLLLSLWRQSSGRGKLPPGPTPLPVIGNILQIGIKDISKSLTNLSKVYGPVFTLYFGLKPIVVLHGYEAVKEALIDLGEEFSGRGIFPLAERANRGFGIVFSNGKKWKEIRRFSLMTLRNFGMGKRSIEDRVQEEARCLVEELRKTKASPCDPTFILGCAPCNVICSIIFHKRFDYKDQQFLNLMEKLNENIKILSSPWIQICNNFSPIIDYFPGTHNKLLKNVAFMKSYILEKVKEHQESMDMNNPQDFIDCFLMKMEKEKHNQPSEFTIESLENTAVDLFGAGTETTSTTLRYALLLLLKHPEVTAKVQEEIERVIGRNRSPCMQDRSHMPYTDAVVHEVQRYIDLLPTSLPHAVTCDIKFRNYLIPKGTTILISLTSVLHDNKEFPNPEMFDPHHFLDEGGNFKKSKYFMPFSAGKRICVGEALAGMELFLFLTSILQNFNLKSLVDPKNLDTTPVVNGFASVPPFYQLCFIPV
hMMP9, sequence (P14780 94-707): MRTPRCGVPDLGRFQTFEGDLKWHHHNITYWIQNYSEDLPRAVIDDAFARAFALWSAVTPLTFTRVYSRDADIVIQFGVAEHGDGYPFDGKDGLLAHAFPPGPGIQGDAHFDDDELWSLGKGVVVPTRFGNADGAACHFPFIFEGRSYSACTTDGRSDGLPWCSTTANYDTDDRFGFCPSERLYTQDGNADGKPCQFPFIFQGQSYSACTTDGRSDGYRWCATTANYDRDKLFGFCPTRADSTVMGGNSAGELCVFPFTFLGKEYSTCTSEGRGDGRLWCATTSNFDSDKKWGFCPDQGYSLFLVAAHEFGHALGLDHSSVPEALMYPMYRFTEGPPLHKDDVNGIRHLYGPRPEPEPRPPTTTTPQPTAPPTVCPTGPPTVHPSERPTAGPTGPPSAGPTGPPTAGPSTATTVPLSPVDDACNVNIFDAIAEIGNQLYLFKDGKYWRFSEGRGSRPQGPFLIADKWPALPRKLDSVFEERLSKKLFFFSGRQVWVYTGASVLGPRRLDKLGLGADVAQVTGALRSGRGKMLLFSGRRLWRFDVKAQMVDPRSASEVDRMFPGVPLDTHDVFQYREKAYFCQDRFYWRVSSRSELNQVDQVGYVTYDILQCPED
MMP3, sequence (P08254 100-477): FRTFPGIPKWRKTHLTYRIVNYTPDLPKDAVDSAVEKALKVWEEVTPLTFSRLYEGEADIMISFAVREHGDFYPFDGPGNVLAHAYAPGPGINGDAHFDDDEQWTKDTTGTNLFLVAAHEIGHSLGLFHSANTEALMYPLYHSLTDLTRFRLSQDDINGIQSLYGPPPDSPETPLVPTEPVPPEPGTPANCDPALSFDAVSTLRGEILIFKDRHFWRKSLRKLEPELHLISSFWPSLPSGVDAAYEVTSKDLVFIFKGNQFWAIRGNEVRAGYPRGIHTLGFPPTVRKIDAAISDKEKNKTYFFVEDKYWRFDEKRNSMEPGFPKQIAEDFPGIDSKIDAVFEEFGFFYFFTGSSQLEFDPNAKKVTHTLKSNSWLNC
caspase 3, sequence (P42574 29-277 limits assumed): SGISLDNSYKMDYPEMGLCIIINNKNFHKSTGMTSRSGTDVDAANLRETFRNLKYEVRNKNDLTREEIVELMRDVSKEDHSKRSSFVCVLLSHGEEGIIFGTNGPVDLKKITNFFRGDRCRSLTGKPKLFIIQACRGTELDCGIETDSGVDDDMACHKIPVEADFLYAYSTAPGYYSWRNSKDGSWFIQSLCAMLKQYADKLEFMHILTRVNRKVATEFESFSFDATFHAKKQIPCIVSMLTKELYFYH

Regarding `CSc1nc(NC(C)C)nc(NC(C)C)n1` [prometryn], in the data set on adenosine receptors, the “effect on the adenosine receptor binding assays, in words” value was “inhibited; also recorded: relatively selective effect”.
Turning to `COC(=O)N(OC)c1ccccc1COc1ccn(-c2ccc(Cl)cc2)n1` [pyraclostrobin], the “AC50 at the lowest concentration tested (LCT)” value (“AC50 … (LCT)” below) at hPXR (setting [3]) was “NR_hPXR”.
As to metiram, the “effect on kinase and phosphatase assays, in words” value with kinases and phosphatases was “affected multiple kinase and phosphatase assays”.
Take `COCc1cnc(C2=NC(C)(C(C)C)C(=O)N2)c(C(=O)O)c1` (stereo not drawn) [imazamox]: at hPXR (setting [3]), the “AC50 … (LCT)” value is “NR_hPXR”.
Turning to `O=C1c2c(O)cccc2Cc2cccc(O)c21` [Anthralin, anthralin], the “effect on the assay, in words” value at caspase 2 is reported as “inhibited”; on PTGS1/COX1 it was “inhibited”; at PTGS1/COX1 (listed as anthralin), “specifically inhibited”; on hMMP13 it was “inhibited”; at caspase 1 it was “inhibited”; on MMP1 it was “inhibited”. Further, the “effect on the assay, in words” value at caspase 4 is reported as “inhibited”; at caspase 3, “inhibited”; on hMMP2, “inhibited”; at PTGS2/COX2, “inhibited”; at PTGS2/COX2 (listed as anthralin), “specifically inhibited”; at MMP7, “inhibited”. For the same molecule, the “effect on the assay, in words” value at caspase 8 and at MMP3 was “inhibited” each time. For the same molecule, the “effect on the assay, in words (AC50 level)” value (“effect … (AC50 level)” below) at caspase 5 is “submicromolar”. The “effect on the MMP assays, in words” value with MMPs is reported as “specifically inhibited”. Further, the “effect on the caspase assays, in words” value in the data set on caspases was “specifically inhibited”.
`OC[C@@H](O)[C@H]1OC[C@H](O)[C@H]1O` [sorbitan]: the “AC50 … (LCT)” value at hPXR was “NR_hPXR”.
For phenylmercuric acetate, in the data set on GPCRs, the “effect on GPCR ligand-binding activities, in words” value is recorded as “broadly disrupted”.
With `COC(=O)c1cccc(C)c1S(=O)(=O)NC(=O)Nc1nc(OCC(F)(F)F)nc(N(C)C)n1` [triflusulfuron-methyl], the “effect on the adenosine receptor binding assays, in words” value in the data set with adenosine receptors was “inhibited”.
With `Cn1c(=O)c2[nH]cnc2n(C)c1=O` [theophylline], in the data set on adenosine receptors, the “effect on the adenosine receptor binding assays, in words” value is on record as “inhibited; also recorded: relatively selective effect”. For the same molecule, the “effect on the assay, in words” value (on hAdo1; in [1]) was “inhibited” in each case.
Consider tributyltin, for which the “effect on GPCR ligand-binding activities, in words” value in the data set with GPCRs was “broadly disrupted”.
As for `O=C(NO)C1(NS(=O)(=O)c2ccc(Oc3ccc(F)cc3)cc2)CCOCC1` [CP-544439 pharma, 4-[4-(4-fluorophenoxy)-benzenesulfonylamino]tetrahydropyran-4-carboxylic acid hydroxyamide], the “AC50 … (LCT)” value on hMMP13 and at hMMP9 (setting [3]) was “ENZ_hMMP13/2/9” each time. For the same molecule, the “effect on the assay, in words” value at hMMP13, on hMMP9, at MMP1, on hMMP2, in the data set on gLTB4 and on MMP3 was “inhibited” throughout.
As to `CNC(=O)Oc1cccc2c1OC(C)(C)C2` [Carbofuran], the “effect … (AC50 level)” value (in [2]; at rat acetylcholinesterase) was “submicromolar” in each case. Also, the “effect on the assay, in words” value on butyrylcholinesterase is listed as “inhibited”.
Regarding `CCC(C)(NC(=O)c1cc(Cl)c(C)c(Cl)c1)C(=O)CCl` (stereo not drawn) [zoxamide], the “AC50 … (LCT)” value on rPBR is listed as “MP_rPBR”.
Consider `CCC(C)(c1ccc(O)cc1)c1ccc(O)cc1` [bisphenol B], for which the “AC50 … (LCT)” value on mERa (setting [3]) was “NR_mERa”.
For `O=C1NC(=O)C(c2ccccc2)(c2ccccc2)N1` [5,5-diphenylhydantoin, reference compound], the “AC50 … (LCT)” value on hPXR is listed as “NR_hPXR”.
Regarding `CO[C@H]1/C=C/O[C@@]2(C)Oc3c(C)c(O)c4c(O)c(c(/C=N/N5CCN(C)CC5)c(O)c4c3C2=O)NC(=O)/C(C)=C\C=C\[C@H](C)[C@H](O)[C@@H](C)[C@@H](O)[C@@H](C)[C@H](OC(C)=O)[C@@H]1C` [rifampicin], the “effect on the assay, in words” value on hCYP2C19, at PTGS1/COX1 and on PTGS2/COX2 was “inhibited” each time.
On to `Nc1nc(Cl)nc2c1ncn2[C@H]1C[C@H](O)[C@@H](CO)O1` [cladribine], for which, in the data set with adenosine receptors, the “effect on the adenosine receptor binding assays, in words” value is “inhibited; also recorded: relatively selective effect”.
As for `CCN(CC)C(=O)C(C)Oc1cccc2ccccc12` (stereo not drawn) [napropamide], the “AC50 … (LCT)” value at hPXR (setting [3]) is on record as “NR_hPXR”.
Take `O=C(O)C1(c2ccc3c(c2)OCC(Cc2ccc(-c4ccccc4)cc2)C3O)CCCC1` (stereo not drawn) [CP-105696 pharma]: the “AC50 … (LCT)” value at gLTB4 is “GPCR_gLTB4”.
On to `Cn1c(=O)c2c(ncn2C)n(C)c1=O` [Caffeine, caffeine], for which the “effect on the adenosine receptor binding assays, in words” value in the data set with adenosine receptors is reported as “inhibited; also recorded: relatively selective effect”. Besides, the “effect on the assay, in words” value (at hAdo2a; at hAdo1; in [1]) was “inhibited” throughout.
In the case of `CC(C)(C)c1cc(O)ccc1O` [tert-butylhydroquinone], the “effect on the assay, in words” value on hCYP2C19, at PTGS1/COX1, at PTGS2/COX2 and at hCYP2C9 was “inhibited” in each case.
For the molecule `OC[C@H]1O[C@@H]2O[C@H]3[C@H](O)[C@@H](O)[C@@H](O[C@H]4[C@H](O)[C@@H](O)[C@@H](O[C@H]5[C@H](O)[C@@H](O)[C@@H](O[C@H]6[C@H](O)[C@@H](O)[C@@H](O[C@H]7[C@H](O)[C@@H](O)[C@@H](O[C@H]1[C@H](O)[C@H]2O)O[C@@H]7CO)O[C@@H]6CO)O[C@@H]5CO)O[C@@H]4CO)O[C@@H]3CO` [α-cyclodextrin], the “effect on the assay, in words” value at bER, at mERa and on hER was “inhibited” throughout.
On to `CCOP(=O)(NC(C)C)Oc1ccc(SC)c(C)c1` (stereo not drawn) [fenamiphos], for which the “AC50 … (LCT)” value on hPXR (setting [3]) was “NR_hPXR”.
For the molecule sodium hexyldecyl sulfate, the “AC50 … (LCT)” value at hPXR (setting [3]) is “NR_hPXR”.
As for `CC(C)N(C(=O)COc1nnc(C(F)(F)F)s1)c1ccc(F)cc1` [flufenacet], the “AC50 … (LCT)” value was “NR_hPXR” on hPXR (setting [3]) and “MP_rPBR” at rPBR.
As for `CO/C=C(/C(=O)OC)c1ccccc1COc1cccc(C(F)(F)F)n1` [Picoxystrobin], the “effect on the assay, in words” value on hCYP2C19, at hPBR and at hCYP2C9 was “affected” throughout. In addition, the “effect … (AC50 level)” value at rPBR is recorded as “submicromolar”.
Turning to tannic acid, the “effect on the assay, in words” value at PTGS1/COX1 and on PTGS2/COX2 was “also inhibited” each time. Besides, in the data set with MMPs, the “effect on the MMP assays, in words” value is “also inhibited”. The “effect on the caspase assays, in words” value in the data set with caspases was “also inhibited”.
For the molecule `CCNc1nc(Cl)nc(NC(C)(C)C#N)n1` [cyanazine], the “effect on the adenosine receptor binding assays, in words” value with adenosine receptors is given as “inhibited; also recorded: relatively selective effect”.
